Results from patent US20140023611A1 (priority 2010, published 2014).
Where a name gives a salt, the structure may show the parent alone.

Legend:
human NaP2b (SLC34A2) = biological target: T1, human NaP2b (SLC34A2) (Homo sapiens, UniProt O95436); assay: Inhibition of NaP2b-mediated Pi (33P) uptake in transfected HEK293 cells, human NaP2b; format: cell-based; settings: read-out: pIC50 range for human NaP2b (converted)
T1 construct: host or cells: HEK293
T1 sequence (O95436 1-690): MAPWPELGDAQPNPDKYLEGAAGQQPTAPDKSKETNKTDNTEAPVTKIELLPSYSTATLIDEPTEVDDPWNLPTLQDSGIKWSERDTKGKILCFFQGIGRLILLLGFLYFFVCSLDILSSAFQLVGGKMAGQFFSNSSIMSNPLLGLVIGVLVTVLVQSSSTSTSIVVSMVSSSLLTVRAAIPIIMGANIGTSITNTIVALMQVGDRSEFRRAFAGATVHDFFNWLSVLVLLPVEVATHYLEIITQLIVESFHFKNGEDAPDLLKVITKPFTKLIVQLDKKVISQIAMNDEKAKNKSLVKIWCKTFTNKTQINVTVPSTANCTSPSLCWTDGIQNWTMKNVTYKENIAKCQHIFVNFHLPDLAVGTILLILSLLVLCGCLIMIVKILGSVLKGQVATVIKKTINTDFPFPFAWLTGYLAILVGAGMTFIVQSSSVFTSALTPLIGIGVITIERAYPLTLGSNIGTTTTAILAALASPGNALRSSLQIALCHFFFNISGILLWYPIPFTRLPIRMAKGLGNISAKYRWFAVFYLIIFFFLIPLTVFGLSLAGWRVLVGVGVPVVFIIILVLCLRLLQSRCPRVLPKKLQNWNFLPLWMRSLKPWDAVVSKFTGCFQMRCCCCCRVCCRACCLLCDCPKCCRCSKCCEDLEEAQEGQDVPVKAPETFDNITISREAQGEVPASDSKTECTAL
Outline: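 Uptake of 33P-phosphate (100 uM KH2PO4 carrier, sodium vs choline buffer, pH 7.4) measured after 3-30 min at room temperature, with test compound at twelve concentrations from 0.1 nM to 30 uM in duplicate. Cells were HEK293 transfected with mutated human NaP2b (Thr insertion after 37, N39D) and treated with a PiT-silencing agent. pIC50 values from scintillation counts.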

[1] = Determination of compound Cmax and AUC after oral gavage (plasma LC-MS/MS); format: in vivo, Sprague-Dawley rats; settings: Sprague-Dawley, rat, plasma, po, Structure (I) examples
Outline: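 Plasma exposure measured by LC-MS/MS after acetonitrile precipitation with internal standard, quantified against a standard curve made in plasma. Compound given orally by gavage to Sprague-Dawley rats at nominal 2.5 or 10 mg/kg, with K2EDTA plasma sampled at 0.5, 1, 2 and 4 h.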

[2] = Table 15, actual oral dose 3-15 mg/kg, plasma 0.5-4 h
[3] = Table 15, actual oral dose 15-40 mg/kg, plasma 0.5-4 h

Structure (SMILES)	IC50 (human NaP2b (SLC34A2))	AUC [1, 2]	Cmax [1, 2]	AUC [1, 3]	Cmax ([1]; Table 15, plasma 0.5-4 h)
CCN(CC)c1ccc(NC(=O)c2cccc(CSCCOCCOCCOCCOCCOCCOCCOCCOCCC(=O)O)c2)c(-c2cc(C(=O)N[C@H]3CCCc4ccccc43)ccn2)c1 [Example 161, (S)-1-(3-(4-(diethylamino)-2-(4-(1,2,3,4-tetrahydronaphthalen-1-ylcarbamoyl)pyridin-2-yl)phenylcarbamoyl)phenyl)-5,8,11,14,17,20,23,26-octaoxa-2-thianonacosan-29-oic acid]	1000 to 7940 nM	< 10 ng·h/mL	< 10 ng/mL		
O=C(O)c1cccc(SCc2cccc(C(=O)Nc3ccc(N4CCCCC4)cc3-c3cc(C(=O)NCc4cccc(C(F)(F)F)c4)ccn3)c2)c1 [Example 8.1, 3-(3-(4-(piperidin-1-yl)-2-(4-(3-(trifluoromethyl)benzylcarbamoyl)pyridin-2-yl)phenylcarbamoyl)benzylthio)benzoic acid]	< 1000 nM	< 30 ng·h/mL	< 10 ng/mL		
CCN(CC)c1ccc(NC(=O)c2cccc(CSc3cccc(CC(=O)N(C)CCOCCOCCOCCC(=O)O)c3)c2)c(-c2cc(C(=O)NCc3cccc(C(F)(F)F)c3)ccn2)c1 [Example 144, 3-(2-(2-(2-(2-(3-(3-(4-(diethylamino)-2-(4-(3-(trifluoromethyl)benzylcarbamoyl)pyridin-2-yl)phenylcarbamoyl)benzylthio)phenyl)-N-methylacetamido)ethoxy)ethoxy)ethoxy)propanoic acid]	< 1000 nM	< 10 ng·h/mL	< 10 ng/mL		
CN(CCOCCOCCOCCC(=O)O)C(=O)Cc1cccc(SCc2cccc(C(=O)Nc3ccc(N4CCCCC4)cc3-c3cc(C(=O)NCc4cccc(C(F)(F)F)c4)ccn3)c2)c1 [Example 138]	1000 to 7940 nM	< 10 ng·h/mL	< 10 ng/mL		
CCN(CC)c1ccc(NC(=O)c2cccc(CCCOCCOCCOCCOCCOCCOCCOCCOCCOCCC(=O)O)c2)c(-c2cc(C(=O)NCc3cccc(C(F)(F)F)c3)ccn2)c1 [Example 298, 31-(3-(4-(diethylamino)-2-(4-(3-(trifluoromethyl)benzylcarbamoyl)pyridin-2-yl)phenylcarbamoyl)phenyl)-4,7,10,13,16,19,22,25,28-nonaoxahentriacontan-1-oic acid]	1000 to 7940 nM			< 30 ng·h/mL	< 30 ng/mL
O=C(NCc1cccc(C(F)(F)F)c1)c1ccnc(-c2cc(N3CCCCC3)ccc2NC(=O)c2cccc(CSc3ccc(C(=O)O)c(Br)c3)c2)c1 [Example 8.21]	1260 nM	< 30 ng·h/mL	< 30 ng/mL		
CN(CCN1CCOCC1)C(=O)c1cccc(C(=O)Nc2ccc(N3CCCCC3)cc2-c2cc(C(=O)NCc3cccc(C(F)(F)F)c3)ccn2)c1 [Example 80, N1-Methyl-N1-(2-morpholinoethyl)-N3-(4-(piperidin-1-yl)-2-(4-((3-(trifluoromethyl)benzyl)carbamoyl)pyridin-2-yl)phenyl)isophthalamide]	1000 to 7940 nM		< 10 ng/mL		
CCN(CC)c1ccc(NC(=O)c2cccc(CCCOCCOCCOCCOCCNS(=O)(=O)c3ccc(C(=O)N(CCOC)CCOCCOCCOCCOCCOCCOCCOC)cc3)c2)c(-c2cc(C(=O)NCc3cccc(C(F)(F)F)c3)ccn2)c1 [Example 272, 2-(2-(3-(1-(4-(2,5,8,11,14,17,20-heptaoxadocosan-22-yl(2-methoxyethyl)carbamoyl)phenylsulfonamido)-3,6,9,12-tetraoxapentadecan-15-yl)benzamido)-5-(diethylamino)phenyl)-N-(3-(trifluoromethyl)benzyl)isonicotinamide]	1000 to 7940 nM			< 10 ng·h/mL	< 10 ng/mL
CCN(CC)c1ccc(NC(=O)c2cccc(CSCCOCCOCCOCCOCCC(=O)O)c2)c(-c2cc(C(=O)NCc3cccc(C(F)(F)F)c3)ccn2)c1 [Example 162, 1-(3-(4-(diethylamino)-2-(4-(3-(trifluoromethyl)benzylcarbamoyl)pyridin-2-yl)phenylcarbamoyl)phenyl)-5,8,11,14-tetraoxa-2-thiaheptadecan-17-oic acid]	< 1000 nM	< 10 ng·h/mL	< 10 ng/mL		
CCN(CC)c1ccc(NC(=O)c2cccc(CCCOCCOCCOCCOCCOCCC(=O)O)c2)c(-c2cc(C(=O)NCc3cccc(C(F)(F)F)c3)ccn2)c1 [Example 300, 19-(3-(4-(diethylamino)-2-(4-(3-(trifluoromethyl)benzylcarbamoyl)pyridin-2-yl)phenylcarbamoyl)phenyl)-4,7,10,13,16-pentaoxanonadecan-1-oic acid]	< 1000 nM			< 30 ng·h/mL	< 10 ng/mL
CCN(CC)c1ccc(NC(=O)c2cccc(CCCOCCOCCOCCOCCOCCOCCOCCOCCOC)c2)c(-c2cc(C(=O)N[C@H]3CCCc4ccccc43)ccn2)c1 [Example 261, (S)-2-(2-(3-(2,5,8,11,14,17,20,23,26-nonaoxanonacosan-29-yl)benzamido)-5-(diethylamino)phenyl)-N-(1,2,3,4-tetrahydronaphthalen-1-yl)isonicotinamide]	< 1000 nM	> 50 ng·h/mL	< 50 ng/mL		
CCN(CC)c1ccc(NC(=O)c2cccc(C(=O)N(C)CCN(CCOC)CCOCCOCCOCCOCCOCCOCCOC)c2)c(-c2cc(C(=O)NCc3cccc(C(F)(F)F)c3)ccn2)c1 [Example 335, N^1-(4-(Diethylamino)-2-(4-(3-(trifluoromethyl)benzylcarbamoyl)pyridin-2-yl)phenyl)-N^3-(23-(2-methoxyethyl)-2,5,8,11,14,17,20-heptaoxa-23-azapentacosan-25-yl)-N^3-methylisophthalamide, trifluoroacetate]	1000 to 7940 nM	> 50 ng·h/mL	< 10 ng/mL		

Continued, values first:

IC50 (human NaP2b (SLC34A2))	AUC [1, 2]	Cmax [1, 2]	AUC [1, 3]	Cmax ([1]; Table 15, plasma 0.5-4 h)	Structure (SMILES)
< 1000 nM			< 30 ng·h/mL	< 30 ng/mL	CCN(CC)c1ccc(NC(=O)c2cccc(CCCOCCOCCOCCOCCOCCOCCC(=O)O)c2)c(-c2cc(C(=O)NCc3cccc(C(F)(F)F)c3)ccn2)c1 [Example 299, 22-(3-(4-(diethylamino)-2-(4-(3-(trifluoromethyl)benzylcarbamoyl)pyridin-2-yl)phenylcarbamoyl)phenyl)-4,7,10,13,16,19-hexaoxadocosan-1-oic acid]
1000 to 7940 nM	< 10 ng·h/mL	< 10 ng/mL			O=C(O)CCOCCOCCOCCOCCSCc1cccc(C(=O)Nc2ccc(N3CCCCC3)cc2-c2cc(C(=O)N[C@H]3CCCc4ccccc43)ccn2)c1 [Example 142, 1-(3-{[4-(piperidin-1-yl)-2-(4-{[(1S)-1,2,3,4-tetrahydronaphthalen-1-yl]carbamoyl}pyridin-2-yl)phenyl]carbamoyl}phenyl)-5,8,11,14-tetraoxa-2-thiaheptadecan-17-oic acid]
1000 to 7940 nM	< 10 ng·h/mL	< 10 ng/mL	< 50 ng·h/mL	> 50 ng/mL	CCN(CC)c1ccc(NC(=O)c2cccc(CSCCOCCOCCOCCOCCOCCOCCOCCOCCC(=O)O)c2)c(-c2cc(C(=O)NCc3cccc(C(F)(F)F)c3)ccn2)c1 [Example 166, 1-(3-(4-(diethylamino)-2-(4-(3-(trifluoromethyl)benzylcarbamoyl)pyridin-2-yl)phenylcarbamoyl)phenyl)-5,8,11,14,17,20,23,26-octaoxa-2-thianonacosan-29-oic acid]
1000 to 7940 nM	< 10 ng·h/mL	< 10 ng/mL			CCN(CC)c1ccc(NC(=O)c2cccc(C(=O)N(C)CCOCCOCCOCCC(=O)O)c2)c(-c2cc(C(=O)NCc3cccc(C(F)(F)F)c3)ccn2)c1 [Example 188, 1-(3-((4-(diethylamino)-2-(4-((3-(trifluoromethyl)benzyl)carbamoyl)pyridin-2-yl)phenyl)carbamoyl)phenyl)-2-methyl-1-oxo-5,8,11-trioxa-2-azatetradecan-14-oic acid]
< 1000 nM	< 30 ng·h/mL	< 30 ng/mL			O=C(O)CCOCCOCCOCCNC(=O)c1cccc2c1ccn2Cc1cccc(C(=O)Nc2ccc(N3CCCCC3)cc2-c2cc(C(=O)N[C@H]3CCCc4ccccc43)ccn2)c1 [Example 181, (S)-1-oxo-1-(1-(3-(4-(piperidin-1-yl)-2-(4-(1,2,3,4-tetrahydronaphthalen-1-ylcarbamoyl)pyridin-2-yl)phenylcarbamoyl)benzyl)-1H-indol-4-yl)-5,8,11-trioxa-2-azatetradecan-14-oic acid]
< 1000 nM	< 10 ng·h/mL	< 10 ng/mL			CCN(CC)c1ccc(NC(=O)c2cccc(CCCOCCOCCOCCOCCOCCOCCOCCOCCOC)c2)c(-c2cc(C(=O)NCc3cccc(C(F)(F)F)c3)ccn2)c1 [Example 269, 2-(2-(3-(2,5,8,11,14,17,20,23,26-nonaoxanonacosan-29-yl)benzamido)-5-(diethylamino)phenyl)-N-(3-(trifluoromethyl)benzyl)isonicotinamide]
